Assay results from publication PMC10970644, “Molecular Pharmacology of Gelsemium Alkaloids on Inhibitory Receptors” (International Journal of Molecular Sciences, 2024).
Entries after “also recorded” stand apart in the source; their conditions may differ.

How the values were obtained:
[1] = molecular target: T1, α3β GlyR (Rattus norvegicus, UniProt P20781+P24524); test: cell-based; assay type: cell-based
T1 construct: The cells were transfected with plasmids encoding the following proteins; expressed in transfected cells; host or cells: HEK293 (ATCC CRL-1573)
Method: (§1) The cells were transfected with plasmids encoding the following proteins: (i). rat GlyR α (1, 2, 3) subunits alone or combined with rat β subunits (Uniprot Accession Numbers: Q546L7, P22771, P20236, P20781); and (ii). rat GABAAR α1 combined with rat β2 and γ2 subunits (Uniprot Accession Numbers: P62813, P63138, P18508). The EGFP expression was used as a marker of successful protein expression. The transfection was performed using Lipofectamine 2000 (Invitrogen, ThermoFisher, Carlsbad, CA, USA) using the fabricant protocol. The plasmids used to express GlyRs and GABAARs have been previously described. To track the successful expression of GlyR β subunits and the GABAA γ2 or β2 subunit, these proteins were subcloned in the pIRES2-EGFP vector. The transfection ratio to obtain β-containing GlyRs was 1:5 of α:β, while the expression of γ2-containing GABAA receptors was 1:2:5 of α:β:γ2 [14, 15]. Chimeric GlyRs were described in a previous report. Site directed mutagenesis was performed by Charm Gene Science Mutagenex LLC. (Cumming, GA, USA). All the constructs were checked by full-length sequencing (SNPSaurus, Eugene, OR, USA).
(§2) In brief, patch electrodes (3–4 MΩ) were pulled from borosilicate glasses in a PC-100 puller (Narishige, Tokyo, Japan); then, they were filled with an intracellular solution, which contained (in mM) 120 CsCl, 8 EGTA, 10 HEPES (pH 7.4), 4 MgCl2, 0.5 GTP, and 2 ATP. The extracellular solution contained (in mM) 140 NaCl, 5.4 KCl, 2.0 CaCl2, 1.0 MgCl2, 10 HEPES (pH 7.4), and 10 glucose. Whole-cell patch-clamp recordings were performed at −60 mV with an Axoclamp 200B (Molecular Devices, Sunnyvale, CA, USA) or with HEKA EPC-10 (HEKA Elektronik GmbH, Reutlingen, Germany) amplifiers. […] Brief (3–5 s) pulses of agonist together with alkaloids were applied to cells. Stock solutions of the alkaloids were prepared in high purity distilled water. Aliquots of these stock solutions were diluted in reservoirs containing extracellular solution. […] The concentration–response curve parameters for the alkaloid inhibition (IC50, nH, and the maximal current inhibition) were obtained from the fitted curve of normalized concentration–response data points to the equation Iagonist = Imax (agonist)nH/((agonist)nH + (EC50)nH). The IC50 curves are best-fit mean ± SE from pooled data. […] The concentration of agonist corresponds to the sub-saturating agonist concentration used to obtain the IC50 for each alkaloid on a given GlyR subtype.

[2] = molecular target: T2, α1β2γ2 GABAARs (Rattus norvegicus, UniProt P62813+P63138); assay type: cell-based; conditions: 50 μM alkaloid; 1 μM GABA
T2 construct: The cells were transfected with plasmids encoding the following proteins; expressed in transfected cells; host or cells: HEK293 (ATCC CRL-1573)
Method: as §1, §2

[3] = molecular target: T3, α1β GlyR (Rattus norvegicus, UniProt P07727+P20781); test: cell-based
T3 construct: The cells were transfected with plasmids encoding the following proteins; expressed in transfected cells; host or cells: HEK293 (ATCC CRL-1573)
Method: as §1
(§3) In brief, patch electrodes (3–4 MΩ) were pulled from borosilicate glasses in a PC-100 puller (Narishige, Tokyo, Japan); then, they were filled with an intracellular solution, which contained (in mM) 120 CsCl, 8 EGTA, 10 HEPES (pH 7.4), 4 MgCl2, 0.5 GTP, and 2 ATP. The extracellular solution contained (in mM) 140 NaCl, 5.4 KCl, 2.0 CaCl2, 1.0 MgCl2, 10 HEPES (pH 7.4), and 10 glucose. Whole-cell patch-clamp recordings were performed at −60 mV with an Axoclamp 200B (Molecular Devices, Sunnyvale, CA, USA) or with HEKA EPC-10 (HEKA Elektronik GmbH, Reutlingen, Germany) amplifiers. […] Brief (3–5 s) pulses of agonist together with alkaloids were applied to cells. Stock solutions of the alkaloids were prepared in high purity distilled water. Aliquots of these stock solutions were diluted in reservoirs containing extracellular solution. […] The concentration–response curve parameters for the alkaloid inhibition (IC50, nH, and the maximal current inhibition) were obtained from the fitted curve of normalized concentration–response data points to the equation Iagonist = Imax (agonist)nH/((agonist)nH + (EC50)nH). The IC50 curves are best-fit mean ± SE from pooled data. […] The inhibition constant (Ki) was calculated using the Cheng–Prusoff equation (Ki = IC50/((2 + ([Agonist]/EC50)^nH)^1/nH − 1). The concentration of agonist corresponds to the sub-saturating agonist concentration used to obtain the IC50 for each alkaloid on a given GlyR subtype.

[4] = molecular target: T4, α2β GlyR (Rattus norvegicus, UniProt P20781+P22771); test: cell-based; assay type: cell-based
T4 construct: The cells were transfected with plasmids encoding the following proteins; expressed in transfected cells; host or cells: HEK293 (ATCC CRL-1573)
Method: as §1, §3

[5] = molecular target: T5, α2 GlyR (Rattus norvegicus, UniProt P22771); test: cell-based; assay type: cell-based
T5 construct: The cells were transfected with plasmids encoding the following proteins; expressed in transfected cells; host or cells: HEK293 (ATCC CRL-1573)
T5 sequence (P22771 28-452): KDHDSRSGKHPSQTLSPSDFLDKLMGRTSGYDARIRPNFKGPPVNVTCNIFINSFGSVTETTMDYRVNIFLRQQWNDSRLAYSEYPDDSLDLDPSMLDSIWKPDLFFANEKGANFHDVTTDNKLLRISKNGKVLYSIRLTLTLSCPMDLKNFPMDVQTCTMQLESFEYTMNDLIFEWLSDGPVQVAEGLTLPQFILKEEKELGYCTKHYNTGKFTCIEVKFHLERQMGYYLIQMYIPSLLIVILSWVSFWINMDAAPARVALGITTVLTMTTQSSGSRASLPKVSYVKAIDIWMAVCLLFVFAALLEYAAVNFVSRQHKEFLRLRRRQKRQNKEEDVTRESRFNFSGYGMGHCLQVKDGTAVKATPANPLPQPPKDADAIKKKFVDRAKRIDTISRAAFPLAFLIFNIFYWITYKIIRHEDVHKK
Method: as §1, §3

[6] = molecular target: T6, α3 GlyR (Rattus norvegicus, UniProt P24524); test: cell-based; assay type: cell-based
T6 construct: expressed in transfected cells; host or cells: HEK293 (ATCC CRL-1573)
T6 sequence (P24524 34-464): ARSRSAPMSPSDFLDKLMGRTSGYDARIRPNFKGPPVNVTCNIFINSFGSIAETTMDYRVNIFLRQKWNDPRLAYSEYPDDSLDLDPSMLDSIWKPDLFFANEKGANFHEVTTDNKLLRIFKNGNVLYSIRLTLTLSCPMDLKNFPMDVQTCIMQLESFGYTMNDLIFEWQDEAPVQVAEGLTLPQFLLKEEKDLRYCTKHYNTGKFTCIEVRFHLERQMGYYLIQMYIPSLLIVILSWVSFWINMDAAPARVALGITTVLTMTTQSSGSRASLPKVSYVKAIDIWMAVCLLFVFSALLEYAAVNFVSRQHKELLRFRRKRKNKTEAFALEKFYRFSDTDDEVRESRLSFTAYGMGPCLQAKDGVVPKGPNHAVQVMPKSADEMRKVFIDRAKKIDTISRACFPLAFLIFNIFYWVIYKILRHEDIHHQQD
Method: as §1, §3

[7] = molecular target: T7, α1 GlyR (Rattus norvegicus, UniProt P07727); test: cell-based; assay type: cell-based
T7 construct: expressed in transfected cells; host or cells: HEK293 (ATCC CRL-1573)
T7 sequence (P07727 29-457): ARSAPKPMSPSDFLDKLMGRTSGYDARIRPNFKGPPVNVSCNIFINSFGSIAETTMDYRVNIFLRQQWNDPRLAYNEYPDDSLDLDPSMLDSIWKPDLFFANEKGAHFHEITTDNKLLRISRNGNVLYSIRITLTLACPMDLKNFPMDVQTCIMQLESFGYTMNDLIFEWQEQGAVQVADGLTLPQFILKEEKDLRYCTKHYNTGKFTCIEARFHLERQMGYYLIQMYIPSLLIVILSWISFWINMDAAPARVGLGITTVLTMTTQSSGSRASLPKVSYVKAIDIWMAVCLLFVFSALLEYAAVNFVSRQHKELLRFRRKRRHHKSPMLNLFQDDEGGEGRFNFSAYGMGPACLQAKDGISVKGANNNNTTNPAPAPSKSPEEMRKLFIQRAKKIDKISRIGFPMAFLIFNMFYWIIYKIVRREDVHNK
Method: as §1, §3

[8] = in vivo studies; cited from earlier work
[9] = percentage change of glycine-evoked current

T1 sequence (P20781 23-496, one chain of several): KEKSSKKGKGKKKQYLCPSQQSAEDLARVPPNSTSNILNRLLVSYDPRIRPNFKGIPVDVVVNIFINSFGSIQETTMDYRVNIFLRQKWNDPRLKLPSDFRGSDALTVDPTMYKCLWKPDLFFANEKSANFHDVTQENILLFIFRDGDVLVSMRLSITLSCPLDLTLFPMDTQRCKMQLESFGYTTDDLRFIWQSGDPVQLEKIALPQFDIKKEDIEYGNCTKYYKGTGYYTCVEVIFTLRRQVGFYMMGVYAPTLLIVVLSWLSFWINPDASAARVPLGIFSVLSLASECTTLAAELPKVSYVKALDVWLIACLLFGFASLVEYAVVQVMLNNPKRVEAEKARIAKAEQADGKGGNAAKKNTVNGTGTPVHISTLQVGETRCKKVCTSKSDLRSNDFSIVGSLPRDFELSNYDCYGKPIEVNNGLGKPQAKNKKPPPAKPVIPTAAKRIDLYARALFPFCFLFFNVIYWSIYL
T4 sequence (P20781 23-496, one chain of several): as above
T3 sequence (P20781 23-496, one chain of several): as above
T2 sequence (P62813 28-455): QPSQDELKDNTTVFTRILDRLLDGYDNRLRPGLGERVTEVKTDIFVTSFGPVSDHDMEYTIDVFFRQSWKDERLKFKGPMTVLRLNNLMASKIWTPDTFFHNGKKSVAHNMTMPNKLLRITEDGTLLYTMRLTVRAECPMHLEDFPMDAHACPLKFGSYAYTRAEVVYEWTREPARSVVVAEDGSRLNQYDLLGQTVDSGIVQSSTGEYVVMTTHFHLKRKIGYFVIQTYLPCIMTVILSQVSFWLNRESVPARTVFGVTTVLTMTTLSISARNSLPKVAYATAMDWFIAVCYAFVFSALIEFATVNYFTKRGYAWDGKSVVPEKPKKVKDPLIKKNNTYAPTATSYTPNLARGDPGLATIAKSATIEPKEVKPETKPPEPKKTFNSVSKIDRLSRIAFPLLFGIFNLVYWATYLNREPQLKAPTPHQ
T2 sequence (P63138 26-474): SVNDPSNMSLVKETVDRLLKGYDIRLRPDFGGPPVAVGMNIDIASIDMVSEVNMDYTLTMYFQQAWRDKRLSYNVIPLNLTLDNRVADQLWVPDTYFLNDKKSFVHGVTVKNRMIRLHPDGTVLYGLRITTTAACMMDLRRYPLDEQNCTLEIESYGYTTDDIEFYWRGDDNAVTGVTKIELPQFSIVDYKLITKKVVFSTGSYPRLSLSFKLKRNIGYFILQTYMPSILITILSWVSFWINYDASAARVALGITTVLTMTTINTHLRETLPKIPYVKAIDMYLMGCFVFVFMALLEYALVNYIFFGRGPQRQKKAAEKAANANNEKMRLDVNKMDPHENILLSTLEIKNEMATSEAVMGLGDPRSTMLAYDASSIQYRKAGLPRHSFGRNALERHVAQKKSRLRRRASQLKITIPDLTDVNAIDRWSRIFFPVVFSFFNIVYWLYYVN
T2 sequence (P18508 39-466 partner): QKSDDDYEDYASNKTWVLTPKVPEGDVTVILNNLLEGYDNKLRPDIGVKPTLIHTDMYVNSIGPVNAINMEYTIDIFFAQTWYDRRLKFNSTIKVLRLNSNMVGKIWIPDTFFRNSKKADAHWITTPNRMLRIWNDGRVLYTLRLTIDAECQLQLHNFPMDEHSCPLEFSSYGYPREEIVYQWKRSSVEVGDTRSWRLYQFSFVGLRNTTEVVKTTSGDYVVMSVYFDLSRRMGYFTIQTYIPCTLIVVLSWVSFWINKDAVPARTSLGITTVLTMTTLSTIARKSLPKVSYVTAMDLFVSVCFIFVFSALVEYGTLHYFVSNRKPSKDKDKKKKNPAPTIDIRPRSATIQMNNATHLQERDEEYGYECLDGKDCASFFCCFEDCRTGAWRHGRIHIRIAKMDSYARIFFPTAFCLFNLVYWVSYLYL

**Q.** What does the source list for CCC1=N[C@H]2C[C@@]3(C(=O)N(OC)c4ccccc43)[C@H]3C[C@@H]1[C@@H]2CO3 [humantenmine]?
**A.** Maximal Modulation Concentration [1]: 300 µM; Maximal Modulation [1, 9]: −15.6 ± 3.8%; modulation of GABAARs (in words) [2]: did not elicit any detectable alterations; also recorded: insensitive; Maximal Modulation Concentration [3]: 0.01 µM; Maximal Modulation [3, 9]: −7.33 ± 10.8%; Maximal Modulation Concentration [4]: 50 µM; Maximal Modulation [4, 9]: −10.3 ± 11.2%; Maximal Modulation Concentration [5]: 50 µM; Maximal Modulation [5, 9]: 8.7 ± 9.6%; Maximal Modulation Concentration [6]: 0.1 µM; Maximal Modulation [6, 9]: −20.2 ± 10.7%; Maximal Modulation Concentration [7]: 300 µM; modulation of glycine-evoked current ([7]; 300 μM of the alkaloid): −19.2 ± 7.8%; modulation of α1GlyRs (in words) ([7]; concentration range of 10 μM to 300 μM): did not display any detectable activity; also recorded: did not significantly modulate; Maximal Modulation [7, 9]: −19.2 ± 7.8%; LD50 [8]: lower than 0.2 mg/kg
